The values that follow come from patent US11261201B2 (priority 2018, dated 2022).

The subject of one experiment is E. coli. The experiment is described as follows: Gram negative MIC protocol (OD600, LB, 24 h). The settings on record: Escherichia coli.
Another experiment deals with E. coli K-12. As to the kind of experiment: Resistance development on LB-agar plates, combination therapy. Conditions: B1 in combination with anti-LeuS Tavaborole, adjusted for dose equivalence; 10^8 cells plated, 37° C., 24 hours; multiple independent experiments (FIG. 1).
The next experiment deals with H37RvMA. As to the kind of experiment: Tuberculosis Alamar Blue/Resazurin assay (MIC). Conditions: Mycobacterium tuberculosis, H37RV, read-out: WT H37Rv MTB Activity. It counts as cell-based.
The test system of a further experiment is A. baumannii. The experiment is described as follows: Gram negative MIC protocol (OD600, LB, 24 h). The settings on record: Acinetobacter baumannii.
Where [1] appears, read: read-out: MIC E. coli delta-TolC LB Media, E. coli delta-TolC, LB media, OD600.
Setting [2] is: read-out: MIC WT E. coli LB Media, WT E. coli, LB media, OD600.
Setting [3] is: read-out: MIC A. baumannii LB Media, A. baumannii, LB media, 24 h, OD600.

Changes are numbered by the printed parent chain. Values after ≈ are worked out from the molar mass of the structure shown. Where two headings read alike, the source gives them in different places. A value given as a limit tells only on which side of the number the result lay.

Method for A. baumannii: Overnight bacterial cultures were grown in LB with no added antibiotics at 37° C. with shaking. A 1:1000 dilution of these cultures into LB was exposed to concentration gradients of compounds in 96-well plates (100 μL per well assay volume). Resulting plates were incubated at 37° C. for 24 h without shaking, and OD600 was measured at the end of the incubation. MICs were determined as the lowest concentrations at which OD600 remained at baseline.
Method for E. coli K-12: Experimental details: Cultures of E. coli K-12 were started from single colonies on LB-agar plates and were grown in LB for 36 hours with shaking at 37° C. Following that, 10^8 cells were plated on LB-agar plates containing B1 or Tavaborole alone or in combination adjusted for dose equivalence and incubated at 37° C. for 24 hours.

In the case of `C1=C(CCNCc2ccccc2)CCCC1` [B1, N-benzyl-2-(cyclohex-1-en-1-yl)ethan-1-amine], the MIC in the experiment with E. coli (setting [1]) is 46 µM (≈ 9.91 µg/mL); in the experiment with E. coli (setting [2]), 60 µM (≈ 12.9 µg/mL); with H37RvMA, > 150 µM; with A. baumannii (read-out: MIC A. baumannii LB Media), 150 µM (≈ 32.3 µg/mL). Also, the development of resistance result in the experiment on E. coli K-12 was “did not develop resistance”.
`CC(CC1CCCCC1)NCc1ccccc1CS(=O)(=O)NCC(=O)NCC(=O)O` (centres unmarked) [B452, ((2-(((1-cyclohexylpropan-2-yl)amino)methyl)benzyl)sulfonyl)glycylglycine]: the MIC in the experiment with E. coli (setting [1]), in the experiment on E. coli (setting [2]), in the experiment on H37RvMA (WT H37Rv MTB) and in the experiment with A. baumannii (setting [3]) was > 150 µM each time.
In the case of `CC(CC1CCCCC1)NCc1ccccc1CS(=O)(=O)N[C@H]1C[C@@H](C(=O)O)C1` (stereo partly drawn) [B453, (1S,3S)-3-(((2-(((1-cyclohexylpropan-2-yl)amino)methyl)phenyl)methyl)sulfonamido)cyclobutane-1-carboxylic acid], the MIC was 20 µM (≈ 8.45 µg/mL) in the experiment on E. coli (setting [1]), > 150 µM with E. coli (setting [2]), > 150 µM with H37RvMA (WT H37Rv MTB) and > 150 µM in the experiment on A. baumannii (setting [3]).
As for `CC(CC1CCCCC1)NCc1ccccc1CS(=O)(=O)N[C@@H](C)C(=O)O` (stereo partly drawn) [B454, ((2-(((1-cyclohexylpropan-2-yl)amino)methyl)benzyl)sulfonyl)-L-alanine], the MIC with E. coli (setting [1]) is 91 µM (≈ 36.1 µg/mL); in the experiment on E. coli (setting [2]), > 150 µM; with H37RvMA (WT H37Rv MTB), > 150 µM; in the experiment with A. baumannii (setting [3]), > 150 µM.
Turning to `CC(CC1CCCCC1)NCc1ccccc1CS(=O)(=O)N[C@H](C)C(=O)O` (stereo partly drawn) [B455, ((2-(((1-cyclohexylpropan-2-yl)amino)methyl)benzyl)sulfonyl)-D-alanine], the MIC in the experiment with E. coli (setting [1]) was 91 µM (≈ 36.1 µg/mL); in the experiment on E. coli (setting [2]) it was > 150 µM; in the experiment with H37RvMA (WT H37Rv MTB) it was > 150 µM; in the experiment on A. baumannii (setting [3]), > 150 µM.
For `CC(CC1CCCCC1)NCc1ccccc1CS(=O)(=O)N[C@H]1C[C@H](C(=O)O)C1` (stereo partly drawn) [B456, (1S,3S)-3-(((2-(((1-cyclohexylpropan-2-yl)amino)methyl)phenyl)methyl)sulfonamido)cyclobutane-1-carboxylic acid], the MIC in the experiment on E. coli (setting [1]) was 33 µM (≈ 13.9 µg/mL); with E. coli (setting [2]), > 150 µM; in the experiment with H37RvMA (WT H37Rv MTB), > 150 µM; in the experiment on A. baumannii (setting [3]) it was > 150 µM.
In the case of `CC(CC1CCCCC1)NCc1ccccc1CS(=O)(=O)Nc1cccc(B(O)O)c1` (centres unmarked) [B457, (3-(((2-(((1-cyclohexylpropan-2-yl)amino)methyl)phenyl)methyl)sulfonamido)phenyl)boronic acid], the MIC in the experiment on E. coli (setting [1]) was < 1 µM; with E. coli (setting [2]), 33 µM (≈ 14.7 µg/mL); with H37RvMA (WT H37Rv MTB), > 55 µM; in the experiment on A. baumannii (setting [3]), 33 µM (≈ 14.7 µg/mL).
With `CC(CC1CCCCC1)NCc1ccccc1OCc1ccccc1C(C)C` (centres unmarked) [B458, 1-cyclohexyl-N-(2-((2-isopropylbenzyl)oxy)benzyl)propan-2-amine], the MIC in the experiment with E. coli (setting [1]) is 4 µM (≈ 1.52 µg/mL); in the experiment on E. coli (setting [2]), > 150 µM; in the experiment with H37RvMA (WT H37Rv MTB) it was 10 µM (≈ 3.8 µg/mL); with A. baumannii (setting [3]), 20 µM (≈ 7.59 µg/mL).
In the same order, the values of `COc1cccc(COc2ccccc2CNC(C)CC2CCCCC2)c1` (centres unmarked) [B459, 1-cyclohexyl-N-(2-((3-methoxybenzyl)oxy)benzyl)propan-2-amine] are 2 µM (≈ 0.735 µg/mL), 55 µM (≈ 20.2 µg/mL), 17 µM (≈ 6.25 µg/mL) and 91 µM (≈ 33.4 µg/mL).
Taken in the same sequence, the figures for `Cc1ccc(COc2ccccc2CNC(C)CC2CCCCC2)cc1` (centres unmarked) [B460, 1-cyclohexyl-N-(2-((4-methylbenzyl)oxy)benzyl)propan-2-amine] were < 1 µM, 33 µM (≈ 11.6 µg/mL), 10 µM (≈ 3.52 µg/mL) and 33 µM (≈ 11.6 µg/mL).
Taken in the same sequence, the figures for `Cc1cccc(COc2ccccc2CNC(C)CC2CCCCC2)c1` (centres unmarked) [B461, 1-cyclohexyl-N-(2-((3-methylbenzyl)oxy)benzyl)propan-2-amine] were < 1 µM, 33 µM (≈ 11.6 µg/mL), 10 µM (≈ 3.52 µg/mL) and 33 µM (≈ 11.6 µg/mL).
Consider `CC(CC1CCCCC1)NCc1ccccc1OCc1ccccc1C1CC1` (centres unmarked) [B462, 1-cyclohexyl-N-(2-((2-cyclopropylbenzyl)oxy)benzyl)propan-2-amine], for which the MIC in the experiment with E. coli (setting [1]) was 4 µM (≈ 1.51 µg/mL); in the experiment on E. coli (setting [2]), > 150 µM; in the experiment on H37RvMA (WT H37Rv MTB), 10 µM (≈ 3.78 µg/mL); with A. baumannii (setting [3]) it was 33 µM (≈ 12.5 µg/mL).
In the same order, the values of `CC(CC1CCCCC1)NCc1ccccc1OCc1ccccc1Oc1ccccc1` (centres unmarked) [B463, 1-cyclohexyl-N-(2-((2-phenoxybenzyl)oxy)benzyl)propan-2-amine] are 4 µM (≈ 1.72 µg/mL), > 150 µM, 17 µM (≈ 7.3 µg/mL) and > 150 µM.
Taken in the same sequence, the figures for `CC1CCCC(CCN2Cc3ccccc3CC2=O)C1` (centres unmarked) [B464, 2-(2-(3-methylcyclohexyl)ethyl)-1,4-dihydroisoquinolin-3(2H)-one] were 90 µM (≈ 24.4 µg/mL), > 150 µM, 2 µM (≈ 0.543 µg/mL) and > 150 µM.
In the same order, the values of `CC1CCC(CC(C)NCc2ccccc2OCc2ccccc2F)CC1` (centres unmarked) [B465, N-(2-((2-fluorobenzyl)oxy)benzyl)-1-(4-methylcyclohexyl)propan-2-amine] are 7 µM (≈ 2.59 µg/mL), > 150 µM, 20 µM (≈ 7.39 µg/mL) and 90 µM (≈ 33.3 µg/mL).
Consider `CC(CC1CCCCC1)NCc1ccccc1CC(N)C(=O)O` (centres unmarked) [B466, 2-amino-3-(2-(((1-cyclohexylpropan-2-yl)amino)methyl)phenyl)propanoic acid], for which the MIC with E. coli (setting [1]) is > 150 µM; with E. coli (setting [2]), > 150 µM; in the experiment on H37RvMA (WT H37Rv MTB), > 55 µM; in the experiment with A. baumannii (setting [3]), > 150 µM.
